The results in this text go back to patent US20080227819A1, “Method for identifying the agonistic activity of a target compound on a potassium channel” (Gruenenthal GmbH, priority 2007, published 2008).

What all share (assay type): cell-based
The target in assay [1] is T1, KCNQ2 channels and KCNQ3 channels (Homo sapiens, UniProt O43525+O43526).
T1 construct: expressed in transfected cells; host or cells: CHO cells (Chinese hamster ovary cells)
Nature of the assay: depolarisation assay format, voltage-sensitive fluorescent dye, CHO cells expressing KCNQ channels. Particulars: saturating concentration of XE991 (60 μM), ΔF/F, control cells subtracted, FIG. 1. The method, then: FIG. 1: Effect of XE991 on the membrane potential of cells expressing KCNQ channels in a depolarisation assay format. The time response of the fluorescence intensity of CHO cells expressing KCNQ channels before and after the application (arrow) of a known KCNQ channel blocker (XE991, 60 μM) is depicted.
CHO cells (Chinese hamster ovary cells) expressing KCNQ2 channels and KCNQ3 channels were adherently cultivated in a nutrient medium [Minimum Essential Medium (MEM), α medium 22571 1×liquid (Invitrogen), 10% Fetal Calf Serum (FCS) (Gibco, heat inactivated), including selection antibiotics] at 37° C., 5% CO2 and 95% air humidity in cell culture bottles. […] After incubation with the dye, either 50 μl ES (control) or 50 μl of the KCNQ channel blocker XE991 in independent wells in a saturating concentration (final concentration 60 μM) were added and incubated for […] with concurrent monitoring of the fluorescence in the reader. The measurements were carried out by a Fluostar or Polarstar fluorescence reader of the company BMG or the FlexStation of the company Molecular Devices. It was excited at a wavelength of 525 nm and detected at a wavelength of 560 nm.
In FIG. 1 the time response of the fluorescence intensity of CHO cells expressing KCNQ channels before and after the application (arrow) of a known KCNQ channel blocker (XE991) is depicted. […]

The target in assay [2] is T1, KCNQ2 channels and KCNQ3 channels. In words: ion jump assay format for searching for potassium channel blockers (potassium injection to extracellular medium). Particulars: KCl final concentration 91.8 mM, FIG. 3. The procedure:
FIG. 3: Influence of XE991 on the fluorescence response after potassium injection to the extracellular medium in a ion jump assay format for searching for potassium channel blockers. The time response of the fluorescence intensity of CHO cells expressing the KCNQ channels before and after the application (arrow) of […] potassium chloride is depicted.
The seeding of KCNQ-expressing cells in assay plates, the loading with the dye and the measurement devices to be used as well as the wavelengths to be set are in accordance with Example 1. […] Then the base line was monitored in the fluorescence reader for 3-4 min and the fluorescence values were measured for 10 min after the injection of 15 μl of a KCl solution (final concentration 91.8 mM) in each cavity of the plate.
In FIG. 3 the time response of the fluorescence intensity of CHO cells expressing the KCNQ channels before and after the application (arrow) of 91.8 mM potassium chloride is depicted. The fluorescence responses of the cells in the absence (Δ) and presence (▪) of the known KCNQ channel blocker XE991 (60 μM) are shown. The percental change in the fluorescence intensity (ΔF/F) based on the averaged fluorescence intensity before the potassium application is depicted.

Assay [3] shares this target. Nature of the assay: hyperpolarisation assay format, voltage-sensitive fluorescent dye, CHO cells expressing KCNQ channels. Particulars: retigabine 30 μM, ΔF/F, control cells subtracted, FIG. 2. The method, then:
FIG. 2: Effect of retigabine on the membrane potential of cells expressing KCNQ channels in a hyperpolarisation assay format. The time response of the fluorescence intensity in CHO cells expressing KCNQ channels before and after the application (arrow) of a known KCNQ channel opener (retigabine, 30 μM) is depicted.
The cells were seeded into assay plates and loaded with the dye in exactly the same way as described in Example 1. The measurements were carried out by a Fluostar or Polarstar fluorescence reader of the company BMG or the FlexStation of the company Molecular Devices. It was excited at a wavelength of 525 nm and detected at a wavelength of 560 nm. After incubation with the dye, the base line was monitored for 5 min. Then either 50 up ES buffer (control) or 50 μl of the KCNQ agonist retigabine (30 μM) were added and the fluorescence was monitored in an appropriate reader for 7.5 min.
In FIG. 2 the time response of the fluorescence intensity of CHO cells expressing KCNQ channels before and after the application (arrow) of the known KCNQ channel opener (retigabine, 30 μM) is depicted. The percental change in the fluorescence intensity (ΔF/F) based on the averaged fluorescence intensity before the application of retigabine is depicted. The course of the fluorescence of the control cells (application of buffer) was subtracted from the retigabine-induced fluorescence signal.

T1 sequence (O43525 whole entry): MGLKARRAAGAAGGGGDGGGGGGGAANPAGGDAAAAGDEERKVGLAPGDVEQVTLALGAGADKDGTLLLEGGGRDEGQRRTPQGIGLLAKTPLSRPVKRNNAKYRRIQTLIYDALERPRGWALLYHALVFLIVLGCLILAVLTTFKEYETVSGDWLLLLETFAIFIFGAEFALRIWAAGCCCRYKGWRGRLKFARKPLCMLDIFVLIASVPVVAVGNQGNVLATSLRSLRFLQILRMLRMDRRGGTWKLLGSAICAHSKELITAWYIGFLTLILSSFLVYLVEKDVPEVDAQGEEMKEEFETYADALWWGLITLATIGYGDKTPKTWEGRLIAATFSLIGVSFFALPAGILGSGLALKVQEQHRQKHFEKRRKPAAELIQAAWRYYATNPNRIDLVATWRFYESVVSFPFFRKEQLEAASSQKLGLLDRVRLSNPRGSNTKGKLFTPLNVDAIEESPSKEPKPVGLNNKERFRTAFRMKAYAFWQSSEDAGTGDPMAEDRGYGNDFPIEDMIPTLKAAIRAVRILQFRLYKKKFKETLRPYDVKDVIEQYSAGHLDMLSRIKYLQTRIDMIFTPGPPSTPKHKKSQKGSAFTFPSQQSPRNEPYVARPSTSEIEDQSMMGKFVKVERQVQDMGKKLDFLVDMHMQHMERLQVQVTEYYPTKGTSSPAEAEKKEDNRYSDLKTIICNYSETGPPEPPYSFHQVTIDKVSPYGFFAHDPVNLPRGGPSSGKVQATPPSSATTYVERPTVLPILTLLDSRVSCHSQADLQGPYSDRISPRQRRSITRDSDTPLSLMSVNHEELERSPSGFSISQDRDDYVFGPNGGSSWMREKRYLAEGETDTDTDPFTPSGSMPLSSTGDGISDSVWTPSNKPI
T1 sequence (O43526 whole entry): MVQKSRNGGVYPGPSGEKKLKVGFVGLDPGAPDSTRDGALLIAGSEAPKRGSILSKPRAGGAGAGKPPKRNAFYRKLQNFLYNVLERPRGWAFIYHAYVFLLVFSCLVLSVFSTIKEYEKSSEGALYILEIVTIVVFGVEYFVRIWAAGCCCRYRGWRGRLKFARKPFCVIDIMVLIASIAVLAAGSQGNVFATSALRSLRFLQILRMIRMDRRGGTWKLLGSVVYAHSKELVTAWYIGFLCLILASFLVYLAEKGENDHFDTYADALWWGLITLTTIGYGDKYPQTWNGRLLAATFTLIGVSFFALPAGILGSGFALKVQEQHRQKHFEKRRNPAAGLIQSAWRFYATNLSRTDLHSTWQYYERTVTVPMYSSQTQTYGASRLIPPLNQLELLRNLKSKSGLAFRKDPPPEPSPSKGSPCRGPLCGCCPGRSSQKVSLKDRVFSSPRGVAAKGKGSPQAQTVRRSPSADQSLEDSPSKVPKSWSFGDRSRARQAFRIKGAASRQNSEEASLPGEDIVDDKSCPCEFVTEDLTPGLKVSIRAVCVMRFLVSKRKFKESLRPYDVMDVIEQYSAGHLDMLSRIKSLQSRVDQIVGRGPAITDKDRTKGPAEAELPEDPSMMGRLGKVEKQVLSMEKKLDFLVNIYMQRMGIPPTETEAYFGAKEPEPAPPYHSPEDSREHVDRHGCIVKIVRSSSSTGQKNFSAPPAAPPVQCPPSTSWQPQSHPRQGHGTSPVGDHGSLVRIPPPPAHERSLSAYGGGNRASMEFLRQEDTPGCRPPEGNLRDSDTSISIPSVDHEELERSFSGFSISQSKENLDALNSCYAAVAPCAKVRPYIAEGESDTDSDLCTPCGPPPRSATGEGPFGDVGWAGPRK

Consider `O=C1c2ccccc2C(Cc2ccncc2)(Cc2ccncc2)c2ccccc21` [XE991], for which the “increase in the fluorescence intensity after application of the KCNQ channel blocker” value in assay [1] is recorded as “about 55%”. Besides, the “difference of the amplitudes of the fluorescence responses in the presence and in the absence of a KCNQ channel blocker (dynamic range of the assay)” value in assay [2] (XE991 60 μM vs control cells) was “about 80%”. For the same compound, the “fluorescence response after the potassium application in the presence of the blocker” value in assay [2] (saturating concentration of XE991 (60 μM), 30 min, control cells show increase by about 80%) is “no increase in the fluorescence”.

For the compound `CCOC(=O)Nc1ccc(NCc2ccc(F)cc2)cc1N` [retigabine], in assay [3], the “decrease in the fluorescence intensity after application of retigabine” value is reported as 35-40%.
